Numbers after ± are expanded uncertainties.
Assays:
[1] = xn = mol fraction of the nth substance listed; conditions: 101 kPa, Liquid, Pulse-echo method
[2] = 101.33 kPa, Liquid, Pulse-echo method

[Cl][Nd]([Cl])[Cl] [neodymium(III) chloride] + [Cl-].[Na+]
[1]
Conditions	speed of sound [m/s]
1009 K, x1 = 0.365	1450 ± 15
1048 K, x1 = 0.365	1418 ± 15
1053 K, x1 = 0.2	1520 ± 16
1063 K, x1 = 0.75	1290 ± 14
1073 K, x1 = 0.2	1502 ± 16
1073 K, x1 = 0.75	1285 ± 14
1074 K, x1 = 0.365	1389 ± 15
1090 K, x1 = 0.44	1350 ± 14
1100 K, x1 = 0.365	1368 ± 15
1103 K, x1 = 0.2	1465 ± 16
1103 K, x1 = 0.44	1340 ± 14
1103 K, x1 = 0.75	1270 ± 14
1115 K, x1 = 0.44	1325 ± 14
1123 K, x1 = 0.44	1330 ± 14
1127 K, x1 = 0.2	1476 ± 16
1128 K, x1 = 0.365	1354 ± 14
1133 K, x1 = 0.44	1325 ± 14
1133 K, x1 = 0.75	1256 ± 14
1143 K, x1 = 0.2	1447 ± 15
1143 K, x1 = 0.44	1322 ± 14
1150 K, x1 = 0.44	1307 ± 14
1154 K, x1 = 0.75	1250 ± 13
1155 K, x1 = 0.365	1357 ± 14
1173 K, x1 = 0.2	1420 ± 15
1175 K, x1 = 0.365	1340 ± 14
1176 K, x1 = 0.75	1240 ± 13

[Cl][Nd]([Cl])[Cl] [neodymium(III) chloride]
[2]
Conditions	speed of sound [m/s]
1044 K	1248 ± 14
1045 K	1259 ± 14
1075 K	1237 ± 13
1083 K	1227 ± 13
1099 K	1227 ± 13
1148 K	1223 ± 13
1165 K	1212 ± 13
1184 K	1188 ± 13
1218 K	1190 ± 13

[Cl][Nd]([Cl])[Cl] [neodymium(III) chloride] + [Cl-].[K+]
[1]
Conditions	speed of sound [m/s]
1007 K, x1 = 0.75	1275 ± 14
1037 K, x1 = 0.75	1259 ± 14
1053 K, x1 = 0.37	1283 ± 14
1058 K, x1 = 0.25	1370 ± 15
1063 K, x1 = 0.5	1259 ± 14
1067 K, x1 = 0.75	1240 ± 13
1076 K, x1 = 0.25	1355 ± 14
1080 K, x1 = 0.37	1260 ± 14
1088 K, x1 = 0.5	1240 ± 13
1096 K, x1 = 0.25	1340 ± 14
1110 K, x1 = 0.37	1250 ± 13
1110 K, x1 = 0.75	1225 ± 13
1118 K, x1 = 0.25	1315 ± 14
1124 K, x1 = 0.5	1230 ± 13
1128 K, x1 = 0.37	1241 ± 13
1139 K, x1 = 0.75	1210 ± 13
1145 K, x1 = 0.37	1223 ± 13
1146 K, x1 = 0.25	1300 ± 14
1150 K, x1 = 0.5	1214 ± 13
1163 K, x1 = 0.75	1197 ± 13
1173 K, x1 = 0.37	1212 ± 13
1176 K, x1 = 0.25	1256 ± 14
1178 K, x1 = 0.37	1200 ± 13
1185 K, x1 = 0.5	1190 ± 13
1186 K, x1 = 0.25	1260 ± 14
1203 K, x1 = 0.5	1186 ± 13
1213 K, x1 = 0.25	1234 ± 13

[Cl][Nd]([Cl])[Cl] [neodymium(III) chloride] + [Cl-].[Cs+]
[1]
Conditions	speed of sound [m/s]
913 K, x1 = 0.45	1110 ± 12
968 K, x1 = 0.45	1080 ± 12
998 K, x1 = 0.8	1205 ± 13
1008 K, x1 = 0.45	1053 ± 12
1043 K, x1 = 0.8	1172 ± 13
1061 K, x1 = 0.45	1026 ± 11
1083 K, x1 = 0.8	1148 ± 13
1112 K, x1 = 0.45	998 ± 11
1123 K, x1 = 0.8	1129 ± 12
1138 K, x1 = 0.45	980 ± 11
1143 K, x1 = 0.8	1115 ± 12
1147 K, x1 = 0.25	969 ± 11
1169 K, x1 = 0.25	961 ± 11
1188 K, x1 = 0.25	953 ± 11
1207 K, x1 = 0.25	949 ± 11
1226 K, x1 = 0.25	941 ± 11
1245 K, x1 = 0.25	934 ± 11

[Cl][Nd]([Cl])[Cl] [neodymium(III) chloride] + [Cl-].[Li+]
[1], x1 = 0.5
Conditions	speed of sound [m/s]
995 K	1395 ± 15
1033 K	1374 ± 15
1108 K	1350 ± 14
1133 K	1331 ± 14
1167 K	1326 ± 14

[Cl-].[Li+] [lithium chloride]
[2]
Conditions	speed of sound [m/s]
950 K	1988 ± 21
976 K	1973 ± 20
1003 K	1945 ± 20
1030 K	1924 ± 20
1062 K	1894 ± 20
1082 K	1879 ± 19
1110 K	1858 ± 19
1148 K	1825 ± 19
1181 K	1791 ± 19
